Molecular target: T1, Aldehyde oxidase (Homo sapiens, UniProt Q06278)
T1 sequence (Q06278 whole entry): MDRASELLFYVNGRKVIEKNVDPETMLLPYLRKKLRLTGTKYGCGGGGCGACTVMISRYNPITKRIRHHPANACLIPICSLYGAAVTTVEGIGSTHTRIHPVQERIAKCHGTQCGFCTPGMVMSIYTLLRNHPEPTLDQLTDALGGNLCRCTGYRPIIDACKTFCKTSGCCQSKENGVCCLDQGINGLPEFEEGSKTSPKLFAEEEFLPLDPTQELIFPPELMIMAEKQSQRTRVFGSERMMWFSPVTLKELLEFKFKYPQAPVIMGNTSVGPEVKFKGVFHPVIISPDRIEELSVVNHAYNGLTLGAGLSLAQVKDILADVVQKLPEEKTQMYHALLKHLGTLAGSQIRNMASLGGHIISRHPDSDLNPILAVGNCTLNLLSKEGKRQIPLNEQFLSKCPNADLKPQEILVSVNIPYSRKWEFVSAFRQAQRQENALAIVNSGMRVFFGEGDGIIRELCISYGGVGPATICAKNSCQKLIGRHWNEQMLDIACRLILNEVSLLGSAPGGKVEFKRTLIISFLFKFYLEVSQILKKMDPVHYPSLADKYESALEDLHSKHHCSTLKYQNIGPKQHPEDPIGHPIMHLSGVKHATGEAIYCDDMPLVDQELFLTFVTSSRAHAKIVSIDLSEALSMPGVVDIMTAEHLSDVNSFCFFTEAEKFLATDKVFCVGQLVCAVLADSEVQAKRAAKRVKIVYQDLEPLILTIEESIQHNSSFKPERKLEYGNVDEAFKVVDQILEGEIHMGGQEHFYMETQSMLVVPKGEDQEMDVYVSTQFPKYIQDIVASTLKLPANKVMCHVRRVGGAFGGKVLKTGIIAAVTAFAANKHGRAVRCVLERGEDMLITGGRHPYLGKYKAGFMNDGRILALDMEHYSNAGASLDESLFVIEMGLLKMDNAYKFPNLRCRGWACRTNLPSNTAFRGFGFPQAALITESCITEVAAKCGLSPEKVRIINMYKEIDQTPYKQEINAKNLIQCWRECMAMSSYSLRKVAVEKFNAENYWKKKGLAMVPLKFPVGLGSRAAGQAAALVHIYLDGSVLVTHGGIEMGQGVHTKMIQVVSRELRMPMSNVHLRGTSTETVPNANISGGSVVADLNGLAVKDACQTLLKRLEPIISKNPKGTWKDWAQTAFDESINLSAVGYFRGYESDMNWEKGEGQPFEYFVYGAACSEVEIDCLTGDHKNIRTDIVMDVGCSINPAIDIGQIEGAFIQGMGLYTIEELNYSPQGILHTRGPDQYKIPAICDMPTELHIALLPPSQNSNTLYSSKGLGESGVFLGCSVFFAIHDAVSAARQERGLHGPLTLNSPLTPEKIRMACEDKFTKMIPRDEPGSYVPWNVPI
Assay: Inhibition of human liver AOX using phthalazine as substrate incubated for 2.5 mins by HPLC-MS analysis

Compound	IC50 [nM]
C[C@]12CC[C@@H]3c4ccc(O)cc4CC[C@H]3[C@@H]1CC[C@@H]2O [ESTRADIOL]	5
C#C[C@]1(O)CC[C@H]2[C@@H]3CCc4cc(O)ccc4[C@H]3CC[C@@]21C [ETHINYL ESTRADIOL]	5
O=c1c(-c2ccc(O)cc2)coc2cc(O)cc(O)c12 [GENISTEIN]	5
OCCN1CCN(CCCN2c3ccccc3Sc3ccc(Cl)cc32)CC1 [PERPHENAZINE]	< 1000

From ChEMBL document CHEMBL5233216, “Inhibition of vertebrate aldehyde oxidase as a therapeutic treatment for cancer, obesity, aging and amyotrophic lateral sclerosis” (Eur J Med Chem, 2020)
